Here are results for five compounds from PubChem BioAssay AID449758 (The Scripps Research Institute Molecular Screening Center, 2010).

The source made the active and inactive calls. The rule behind the calls is not given here.

The assay concerns Human cells, IFNg-induced IRF-1 mRNA, SYBR qPCR. The experiment in a line: inhibitors of IFNg-induced IRF-1 mRNA expression, late-stage follow-up, counter-screen for STAT1 inhibitor project, cell-based, SYBR qPCR, powder samples (AID 449758). As to conditions: at 10 µM; stronger effect = lower value. (In general: Counterscreens check selectivity or assay interference.)
With `O=c1cc(CSc2nc3ccccc3c(=O)[nH]2)c2ccc(O)cc2o1`, the fold change is 1.36 (inactive).
On to `CCOC(=O)C(=CNc1cc(C)nn1-c1ccccc1)C(=O)OCC`, for which the fold change is 0.997 (inactive).
The same measure for `Cc1ccc(-n2nc(C(=O)O)c3ccccc3c2=O)cc1C`: 0.764 (inactive).
On to `Cc1cc(=O)n(C(NC(=O)c2ccccc2)C(=O)c2ccccc2)cn1` (stereo not given), for which the fold change was 1.24 (inactive).
On to `CCOC(=O)N1CCN(C(=O)c2ccc(-n3c(=S)[nH]c4ccccc4c3=O)cc2)CC1`, for which the fold change was 0.883 (inactive).
